Earlier results as cited in patent publication US20200172966A1 (YAMAGUCHI UNIVERSITY, priority 2015, published 2020).

Settings: patients identified as non-high-risk based on polymorphisms of the UGT1A gene; cited from earlier work

Which “patients with a side effect” value does the source give for CCc1c2c(nc3ccc(OC(=O)N4CCC(N5CCCCC5)CC4)cc13)-c1cc3c(c(=O)n1C2)COC(=O)[C@]3(O)CC [irinotecan, 1,4′-Bipiperidine-1′-carboxylic acid (S)-4,11-diethyl-3,4,12,14-tetrahydro-4-hydroxy-3,14-dioxo-1H-pyrano[3′,4′:6,7]indolizino[1,2-b]quinolin-9-yl ester] here?
The value was 43%.
